Where a name gives a salt, the structure may show the parent alone. Read-outs that look alike come from different tables or passages of the source.
What was measured:
CK1α = CK1α (Homo sapiens, UniProt P48729+Q96SW2); assay: CK1α degradation, flow cytometry in MV4-11 cells; type: cell-based; set-up: CK1α levels were determined in MV-4-11 cells using Jess (Protein Simple); host or cells: MV-4-11; conditions: % reduction of CK1α compared to DMSO, MV4-11 cells at 316 nM for 16 hours, read-out: CK1α degradation classification
Description: MV-4-11 cells were obtained from ATCC and grown in IMDM supplemented with 10% FBS. The cells were maintained at 37° C. under 5% CO2.
Compounds of the present disclosure were added to cells (final DMSO concentration of 0.5%) and incubated for 16 hours. CK1α level was determined in MV4-11 cells using flow cytometry (Luminex, Guava EasyCyte Plus). Briefly, cells were prepared with sequential 10% formalin and 70% methanol fixation. […] GuavaSoft Incyte software was used to analyse the flow cytometry data. Protein levels relative to DMSO are calculated for CK1α.
The efficacy of CK1α degradation of other part of compounds of the present disclosure was determined by treating MV4-11 cells at […] (Final DMSO concentration of 0.5%) for 16 hours. Protein levels relative to DMSO are calculated for CK1α.
Protein levels relative to DMSO are calculated for CK1α.

MV-4-11 cells = assay: AML cell viability assay (RealTime-Glo); type: cell-based; conditions: Homo sapiens, read-out: Cell viability classification
[1] = MV4-11, IC50 class, MV-4-11 cells, RealTime-Glo after 44 hrs of treatment (TABLE 3)
[2] = MV4-11, IC50 class, MV-4-11 cells, RealTime-Glo after 44 hrs of treatment (TABLE 5)

CK1α, sequence (P48729 whole entry): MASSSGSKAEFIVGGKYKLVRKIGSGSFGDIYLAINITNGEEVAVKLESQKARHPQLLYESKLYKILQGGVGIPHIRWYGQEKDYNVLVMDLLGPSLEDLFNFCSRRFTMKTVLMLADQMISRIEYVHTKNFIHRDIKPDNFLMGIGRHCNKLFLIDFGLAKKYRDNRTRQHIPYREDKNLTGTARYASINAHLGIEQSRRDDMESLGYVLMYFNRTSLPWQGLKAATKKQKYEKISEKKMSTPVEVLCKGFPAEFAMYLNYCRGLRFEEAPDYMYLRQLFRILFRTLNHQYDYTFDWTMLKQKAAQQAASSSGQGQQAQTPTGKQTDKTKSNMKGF
CK1α, sequence (Q96SW2 whole entry): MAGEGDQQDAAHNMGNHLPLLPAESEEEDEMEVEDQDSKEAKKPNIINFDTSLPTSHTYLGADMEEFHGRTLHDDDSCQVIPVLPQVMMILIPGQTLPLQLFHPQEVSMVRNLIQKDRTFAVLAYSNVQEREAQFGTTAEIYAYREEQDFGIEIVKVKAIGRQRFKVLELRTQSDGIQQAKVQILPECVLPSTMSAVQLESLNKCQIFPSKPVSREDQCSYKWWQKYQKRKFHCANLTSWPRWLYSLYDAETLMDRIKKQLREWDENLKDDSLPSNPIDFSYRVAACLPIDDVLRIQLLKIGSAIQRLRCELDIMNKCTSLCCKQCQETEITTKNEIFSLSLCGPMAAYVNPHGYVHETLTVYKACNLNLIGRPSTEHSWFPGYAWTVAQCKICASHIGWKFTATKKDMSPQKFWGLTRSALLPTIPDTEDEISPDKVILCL
CK1α, sequence (Q16531 whole entry partner): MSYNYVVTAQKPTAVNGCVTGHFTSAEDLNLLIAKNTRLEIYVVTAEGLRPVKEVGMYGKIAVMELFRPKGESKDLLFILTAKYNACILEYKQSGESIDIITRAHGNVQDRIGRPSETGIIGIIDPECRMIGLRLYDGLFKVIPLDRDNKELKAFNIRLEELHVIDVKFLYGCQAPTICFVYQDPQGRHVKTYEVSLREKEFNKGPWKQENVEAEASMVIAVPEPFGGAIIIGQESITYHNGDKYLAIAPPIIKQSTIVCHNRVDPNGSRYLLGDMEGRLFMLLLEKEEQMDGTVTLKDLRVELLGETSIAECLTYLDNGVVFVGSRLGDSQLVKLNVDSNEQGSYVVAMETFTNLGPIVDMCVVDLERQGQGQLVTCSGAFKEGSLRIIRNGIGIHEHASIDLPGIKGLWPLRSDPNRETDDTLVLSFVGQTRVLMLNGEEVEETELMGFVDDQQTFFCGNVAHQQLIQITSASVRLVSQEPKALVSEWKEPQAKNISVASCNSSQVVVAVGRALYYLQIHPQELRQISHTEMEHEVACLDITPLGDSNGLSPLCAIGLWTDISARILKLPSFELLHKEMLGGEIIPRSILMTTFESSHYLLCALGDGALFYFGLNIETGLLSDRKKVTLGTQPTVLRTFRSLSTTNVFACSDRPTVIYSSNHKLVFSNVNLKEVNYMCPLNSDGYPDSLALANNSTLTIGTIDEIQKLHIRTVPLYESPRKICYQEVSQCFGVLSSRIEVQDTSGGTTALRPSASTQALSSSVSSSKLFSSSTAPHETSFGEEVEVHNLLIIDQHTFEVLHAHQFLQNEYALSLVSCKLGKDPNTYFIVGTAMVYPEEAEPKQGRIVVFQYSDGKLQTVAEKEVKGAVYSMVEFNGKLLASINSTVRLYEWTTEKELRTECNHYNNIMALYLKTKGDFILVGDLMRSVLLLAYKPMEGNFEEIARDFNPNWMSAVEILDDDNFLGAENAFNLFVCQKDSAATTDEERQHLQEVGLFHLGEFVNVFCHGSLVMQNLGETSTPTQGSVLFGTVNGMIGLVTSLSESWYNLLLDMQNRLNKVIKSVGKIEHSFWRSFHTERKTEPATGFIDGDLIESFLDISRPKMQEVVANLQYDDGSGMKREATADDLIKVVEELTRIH

| Dmax at 0.316 µM (CK1α) [%] | IC50 (MV-4-11 cells; [1]) [nM] | IC50 (MV-4-11 cells; [2]) [nM] | SMILES | IC50 (MV-4-11 cells; MV4-11, 44 h) [nM] |
| --- | --- | --- | --- | --- |
| > 75 | < 100 | – | C/C=C/CCN(CCCCN)c1cccc2c1CN(C1CCC(=O)NC1=O)C2=O (stereo not drawn) [Compound 93, (E)-3-(4-((4-aminobutyl)(pent-3-en-1-yl)amino)-1-oxoisoindolin-2-yl)piperidine-2,6-dione hydrochloride] | – |
| > 75 | < 100 | – | C/C=C\CCN(CCCCN)c1cccc2c1CN(C1CCC(=O)NC1=O)C2=O (stereo not drawn) [Compound 94, (Z)-3-(4-((4-aminobutyl)(pent-3-en-1-yl)amino)-1-oxoisoindolin-2-yl)piperidine-2,6-dione] | – |
| < 50 | 100 to 1000 | – | CC#CCCN(CCCCN)c1cccc2c1CN(C1CCC(=O)NC1=O)C2=O (stereo not drawn) [Compound 95, 3-(4-((4-aminobutyl)(pent-3-yn-1-yl)amino)-1-oxoisoindolin-2-yl)piperidine-2,6-dione, HCl] | – |
| > 75 | 100 to 1000 | – | CCCCCN(CCCCNCCC(C)C)c1cccc2c1CN(C1CCC(=O)NC1=O)C2=O (stereo not drawn) [Compound 167, 3-(4-((4-(isopentylamino)butyl)(pentyl)amino)-1-oxoisoindolin-2-yl)piperidine-2,6-dione. HCl] | – |
| > 75 | 100 to 1000 | – | CCCCCN(c1cccc2c1CN(C1CCC(=O)NC1=O)C2=O)[C@H]1CC[C@H](NC(C)=O)CC1 (stereo partly drawn) [Compound 168, N-((1r,4r)-4-((2-(2,6-dioxopiperidin-3-yl)-1-oxoisoindolin-4-yl)(pentyl)amino)cyclohexyl)acetamide] | – |
| > 75 | < 100 | – | CC(C)(C)CCN(CCCCN)c1cccc2c1CN(C1CCC(=O)NC1=O)C2=O (stereo not drawn) [Compound 223, 3-(4-((4-aminobutyl)(3,3-dimethylbutyl)amino)-1-oxoisoindolin-2-yl)piperidine-2,6-dione] | – |
| > 75 | < 100 | – | N[C@H]1CC[C@H](N(CC2CC2)c2cccc3c2CN(C2CCC(=O)NC2=O)C3=O)CC1 (stereo partly drawn) [Compound 235, 3-(4-(((1r,4r)-4-aminocyclohexyl)(cyclopropylmethyl)amino)-1-oxoisoindolin-2-yl)piperidine-2,6-dione hydrochloride] | – |
| > 75 | 100 to 1000 | – | CC(C)CN(c1cccc2c1CN(C1CCC(=O)NC1=O)C2=O)[C@H]1CC[C@H](N)CC1 (stereo partly drawn) [Compound 236, 3-(4-(((1r,4r)-4-aminocyclohexyl)(isobutyl)amino)-1-oxoisoindolin-2-yl)piperidine-2,6-dione. HCl] | – |
| > 75 | < 100 | – | N[C@H]1CC[C@H](N(CCC2CC2)c2cccc3c2CN(C2CCC(=O)NC2=O)C3=O)CC1 (stereo partly drawn) [Compound 237, 3-(4-(((1r,4r)-4-aminocyclohexyl)(2-cyclopropylethyl)amino)-1-oxoisoindolin-2-yl)piperidine-2,6-dione, HCl] | – |
| > 75 | < 100 | – | CC(C)CCN(c1cccc2c1CN(C1CCC(=O)NC1=O)C2=O)[C@H]1CC[C@H](N)CC1 (stereo partly drawn) [Compound 238, 3-(4-(((1r,4r)-4-aminocyclohexyl)(isopentyl)amino)-1-oxoisoindolin-2-yl)piperidine-2,6-dione hydrochloride] | – |
| < 50 | > 1000 | – | N[C@H]1CC[C@H](N(CCC2CCNCC2)c2cccc3c2CN(C2CCC(=O)NC2=O)C3=O)CC1 (stereo partly drawn) [Compound 239, 3-(4-(((1r,4r)-4-aminocyclohexyl) (2-(piperidin-4-yl)ethyl)amino)-1-oxoisoindolin-2-yl) piperidine-2,6-dione, 2HCl] | – |
| < 50 | 100 to 1000 | – | N[C@H]1CC[C@H](N(CCC2CCOCC2)c2cccc3c2CN(C2CCC(=O)NC2=O)C3=O)CC1 (stereo partly drawn) [Compound 240, 3-(4-(((1r,4r)-4-aminocyclohexyl)(2-(tetrahydro-2H-pyran-4-yl)ethyl)amino)-1-oxoisoindolin-2-yl)piperidine-2,6-dione hydrochloride] | – |
| < 50 | > 1000 | – | N[C@H]1CC[C@H](N(CCCC2CCNCC2)c2cccc3c2CN(C2CCC(=O)NC2=O)C3=O)CC1 (stereo partly drawn) [Compound 241, 3-(4-(((1r,4r)-4-aminocyclohexyl)(3-(piperidin-4-yl)propyl)amino)-1-oxoisoindolin-2-yl)piperidine-2,6-dione, 2HCl] | – |
| > 75 | < 100 | – | N[C@H]1CC[C@H](N(CCCC2CCOCC2)c2cccc3c2CN(C2CCC(=O)NC2=O)C3=O)CC1 (stereo partly drawn) [Compound 242, 3-(4-(((1r,4r)-4-aminocyclohexyl)(3-(tetrahydro-2H-pyran-4-yl)propyl)amino)-1-oxoisoindolin-2-yl)piperidine-2,6-dione hydrochloride] | – |
| < 50 | > 1000 | – | N[C@H]1CC[C@H](N(CCN2CCNCC2)c2cccc3c2CN(C2CCC(=O)NC2=O)C3=O)CC1 (stereo partly drawn) [Compound 243, 3-(4-(((1r,4r)-4-aminocyclohexyl)(2-(piperazin-1-yl)ethyl)amino)-1-oxoisoindolin-2-yl)piperidine-2,6-dione, 3HCl] | – |
| < 50 | > 1000 | – | N[C@H]1CC[C@H](N(CCN2CCOCC2)c2cccc3c2CN(C2CCC(=O)NC2=O)C3=O)CC1 (stereo partly drawn) [Compound 244, 3-(4-(((1r,4r)-4-aminocyclohexyl)(2-morpholinoethyl)amino)-1-oxoisoindolin-2-yl)piperidine-2,6-dione, 2HCl] | – |
| < 50 | > 1000 | – | N[C@H]1CC[C@H](N(CCCN2CCNCC2)c2cccc3c2CN(C2CCC(=O)NC2=O)C3=O)CC1 (stereo partly drawn) [Compound 245, 3-(4-(((1r,4r)-4-aminocyclohexyl)(3-(piperazin-1-yl)propyl)amino)-1-oxoisoindolin-2-yl)piperidine-2,6-dione, 3HCl] | – |
| < 50 | > 1000 | – | N[C@H]1CC[C@H](N(CCCN2CCOCC2)c2cccc3c2CN(C2CCC(=O)NC2=O)C3=O)CC1 (stereo partly drawn) [Compound 246, 3-(4-(((1r,4r)-4-aminocyclohexyl)(3-morpholinopropyl)amino)-1-oxoisoindolin-2-yl)piperidine-2,6-dione dihydrochloride] | – |
| 50 to 75 | 100 to 1000 | – | CCCCCN(CCC1(CN)CCCCC1)c1cccc2c1CN(C1CCC(=O)NC1=O)C2=O (stereo not drawn) [Compound 255, 3-(4-((2-(1-(aminomethyl)cyclohexyl)ethyl) (pentyl)amino)-1-oxoisoindolin-2-yl) piperidine-2,6-dione, Formic Acid] | – |
| > 75 | < 100 | – | CC(C)(C)CCN(c1cccc2c1CN(C1CCC(=O)NC1=O)C2=O)[C@H]1CC[C@H](N)CC1 (stereo partly drawn) [Compound 267, 3-(4-(((1R,4R)-4-aminocyclohexyl)(3,3-dimethylbutyl)amino)-1-oxoisoindolin-2-yl)piperidine-2,6-dione hydrochloride] | – |
| > 75 | < 100 | – | CC(C)(C)CCCN(c1cccc2c1CN(C1CCC(=O)NC1=O)C2=O)[C@H]1CC[C@H](N)CC1 (stereo partly drawn) [Compound 268, 3-(4-(((1r,4r)-4-aminocyclohexyl)(4,4-dimethylpentyl)amino)-1-oxoisoindolin-2-yl)piperidine-2,6-dione, HCl] | – |
| 50 to 75 | > 1000 | – | CC(=O)N[C@H]1CC[C@H](N(CCCCN)c2cccc3c2CN(C2CCC(=O)NC2=O)C3=O)CC1 (stereo partly drawn) [Compound 273, N-((1r,4r)-4-((4-aminobutyl)(2-(2,6-dioxopiperidin-3-yl)-1-oxoisoindolin-4-yl)amino)cyclohexyl)acetamide, 2HCl] | – |
| – | – | > 1000 | O=C1CCC(N2Cc3c(cccc3N(CCC3CC3)[C@H]3CC[C@@H](N4CC[C@@H](C(F)(F)F)C4)CC3)C2=O)C(=O)N1 (stereo partly drawn) [Compound 713A, 3-(4-((2-cyclopropylethyl)((1S,4s)-4-((R)-3-(trifluoromethyl)pyrrolidin-1-yl)cyclohexyl)amino)-1-oxoisoindolin-2-yl)piperidine-2,6-dione bis(2,2,2-trifluoroacetate)] | – |
| – | – | > 1000 | CN1CCC(CN(CCC2CC2)c2cccc3c2CN(C2CCC(=O)NC2=O)C3=O)CC1 (stereo not drawn) [Compound 714, 3-(4-((2-cyclopropylethyl)((1-methylpiperidin-4-yl)methyl)amino)-1-oxoisoindolin-2-yl)piperidine-2,6-dione] | – |
| – | – | > 1000 | O=C1CCC(N2Cc3c(cccc3N(CCC3CC3)[C@H]3CC[C@@H](N4CCC(F)(F)CC4)CC3)C2=O)C(=O)N1 (stereo partly drawn) [Compound 716A, 3-(4-((2-cyclopropylethyl)((1s,4s)-4-(4,4-difluoropiperidin-1-yl)cyclohexyl)amino)-1-oxoisoindolin-2-yl)piperidine-2,6-dione tris(2,2,2-trifluoroacetate)] | – |

| SMILES | Dmax at 0.316 µM (CK1α) [%] | IC50 (MV-4-11 cells; [1]) [nM] | IC50 (MV-4-11 cells; [2]) [nM] | IC50 (MV-4-11 cells; MV4-11, 44 h) [nM] |
| --- | --- | --- | --- | --- |
| CCCCCN(CCCCNCCCC)c1cccc2c1CN(C1CCC(=O)NC1=O)C2=O (stereo not drawn) [Compound 166, 3-(4-((4-(butylamino)butyl)(pentyl)amino)-1-oxoisoindolin-2-yl)piperidine-2,6-dione, HCl] | > 75 | – | – | 100 to 1000 |
| CCCCCN(c1cccc2c1CN(C1CCC(=O)NC1=O)C2=O)[C@H]1CC[C@H](NC)CC1 (stereo partly drawn) [Compound 169, 3-(4-(((1R,4R)-4-(methylamino)cyclohexyl)(pentyl)amino)-1-oxoisoindolin-2-yl)piperidine-2,6-dione hydrochloride] | > 75 | – | – | < 100 |

Source: US20250188069A1, “COMPOUNDS AND METHODS FOR DEGRADING CASEIN KINASE 1 ALPHA” (PIN THERAPEUTICS, INC., priority 2022, published 2025)
